According to PubChem BioAssay AID1963429 (Molecular Pharmacology Branch, DTP, NCI, 2024):
Where “and” joins values, the source holds several entries; their conditions need not be identical. Equal entries are not always repeated.

System: 126254-015-R-J1-PDC complex spheroid growth, % test/control
Assay: Anticancer human tumor 126254-015-R-J1-PDC patient-derived soft tissue sarcoma cell line growth inhibition [Asc]
Conditions: for viability, T/C: stronger effect = lower value; active = viability on the fitted dose curve at most 10% of control; inactive = the rest
In short: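 Spheroid model: tumor line + HUVEC + hMSC. Single agents and combinations; top conc. at/near clinical Cmax (10 microM if undetermined), half-log dilutions. DMSO stocks at 800-fold test concentration.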
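Also: spheroids exposed to compound for seven days.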
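For viability, T/C in this document: 100% = DMSO vehicle control wells.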

NC(=O)C(=Cn1cnc(-c2cc(C(F)(F)F)cc(C(F)(F)F)c2)n1)c1cncnc1 + CCN1C(C(=O)NC23CCC(C(=O)O)(CC2)CC3)C(c2cccc(Cl)c2F)C2(C(=O)Nc3cc(Cl)ccc32)C12CCCCC2
inactive: viability, T/C (second compound 0.03 µM, first compound 0.000949 µM) 93.9% | viability, T/C (second compound 0.03 µM, first compound 0.003 µM) 87.4% | viability, T/C (second compound 0.03 µM, first compound 0.00949 µM) 79.4% | viability, T/C (second compound 0.03 µM, first compound 0.03 µM) 77.8% | viability, T/C (second compound 0.03 µM, first compound 0.0949 µM) 37.5% | viability, T/C (second compound 0.03 µM, first compound 0.3 µM) 19.6% | viability, T/C (second compound 0.0949 µM, first compound 0.000949 µM) 102% | viability, T/C (second compound 0.0949 µM, first compound 0.003 µM) 90.5% | viability, T/C (second compound 0.0949 µM, first compound 0.00949 µM) 78.6% | viability, T/C (second compound 0.0949 µM, first compound 0.03 µM) 61.3% | viability, T/C (second compound 0.0949 µM, first compound 0.0949 µM) 35.8% | viability, T/C (second compound 0.0949 µM, first compound 0.3 µM) 14% | viability, T/C (second compound 0.3 µM, first compound 0.000949 µM) 90.1% | viability, T/C (second compound 0.3 µM, first compound 0.003 µM) 102% | viability, T/C (second compound 0.3 µM, first compound 0.00949 µM) 83% | viability, T/C (second compound 0.3 µM, first compound 0.03 µM) 53.1% | viability, T/C (second compound 0.3 µM, first compound 0.0949 µM) 39.3% | viability, T/C (second compound 0.3 µM, first compound 0.3 µM) 17.5% | viability, T/C (second compound 0.949 µM, first compound 0.000949 µM) 96.5% | viability, T/C (second compound 0.949 µM, first compound 0.003 µM) 87.4% | viability, T/C (second compound 0.949 µM, first compound 0.00949 µM) 96.1% | viability, T/C (second compound 0.949 µM, first compound 0.03 µM) 64.2% | viability, T/C (second compound 0.949 µM, first compound 0.0949 µM) 31.6% | viability, T/C (second compound 0.949 µM, first compound 0.3 µM) 21% | viability, T/C (second compound 3 µM, first compound 0.000949 µM) 102% | viability, T/C (second compound 3 µM, first compound 0.003 µM) 99.3% | viability, T/C (second compound 3 µM, first compound 0.00949 µM) 87.7% | viability, T/C (second compound 3 µM, first compound 0.03 µM) 70.2% | viability, T/C (second compound 3 µM, first compound 0.0949 µM) 41.1% | viability, T/C (second compound 3 µM, first compound 0.3 µM) 19.6%
49.5 nM: IC50 (curve of first compound, second compound 0.949 µM)
66.2 nM: IC50 (curve of first compound, second compound 0.03 µM)
49.3 nM: IC50 (curve of first compound, second compound 0.0949 µM)
43.9 nM: IC50 (curve of first compound, second compound 0.3 µM)
67 nM: IC50 (curve of first compound, second compound 3 µM)

CCN1CCN(Cc2ccc(Nc3ncc(F)c(-c4cc(F)c5nc(C)n(C(C)C)c5c4)n3)nc2)CC1
> 1000 nM: IC50 (curve of compound)
inactive: viability, T/C (compound 0.00316 µM) 99.2% and 102% (2×) | viability, T/C (compound 0.01 µM) 104% and 97% and 96.8% | viability, T/C (compound 0.0316 µM) 109% (2×) and 99% | viability, T/C (compound 0.1 µM) 94.1% and 103% and 115% | viability, T/C (compound 0.316 µM) 114% and 110% and 112% | viability, T/C (compound 1 µM) 110% and 102% and 112%
